From article PMC2636818, “Atomic structures and functional implications of the archaeal RecQ-like helicase Hjm” (BMC Structural Biology, 2009)

T1: PfuHjm (Pyrococcus furiosus, UniProt O73946)
T1 construct: gene hel308; full-length 720 residues, recombinant from pET21d (pHJM100) in E. coli BL21 codonPlus (DE3)-RIL; C-terminal ~60 (Form 1) or 20 (Form 2) residues disordered; one molecule per asymmetric unit in Form 1
T1 sequence (O73946 1-720): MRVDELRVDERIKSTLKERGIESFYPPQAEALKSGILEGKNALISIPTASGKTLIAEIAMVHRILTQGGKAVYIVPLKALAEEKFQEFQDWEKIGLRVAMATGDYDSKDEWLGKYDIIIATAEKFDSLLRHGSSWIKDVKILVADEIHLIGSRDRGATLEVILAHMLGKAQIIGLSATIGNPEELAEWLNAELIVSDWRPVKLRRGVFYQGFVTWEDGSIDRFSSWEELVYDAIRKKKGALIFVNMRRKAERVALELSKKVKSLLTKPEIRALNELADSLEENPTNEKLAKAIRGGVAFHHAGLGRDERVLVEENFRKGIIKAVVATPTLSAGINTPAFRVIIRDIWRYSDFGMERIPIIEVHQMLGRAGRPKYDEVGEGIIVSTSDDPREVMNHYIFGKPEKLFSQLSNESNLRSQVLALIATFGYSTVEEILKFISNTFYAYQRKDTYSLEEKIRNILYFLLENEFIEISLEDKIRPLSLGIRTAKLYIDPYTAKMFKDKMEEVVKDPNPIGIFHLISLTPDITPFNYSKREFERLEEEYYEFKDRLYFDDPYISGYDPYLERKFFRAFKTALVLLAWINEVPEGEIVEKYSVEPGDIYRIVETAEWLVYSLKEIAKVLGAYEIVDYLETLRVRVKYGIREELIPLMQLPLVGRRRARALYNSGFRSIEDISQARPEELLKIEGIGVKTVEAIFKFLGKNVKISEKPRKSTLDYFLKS

T2: PfuHjm (RecQ-like helicase Hjm, Hel308 family) (Pyrococcus furiosus, UniProt O73946 1-720)
T2 sequence: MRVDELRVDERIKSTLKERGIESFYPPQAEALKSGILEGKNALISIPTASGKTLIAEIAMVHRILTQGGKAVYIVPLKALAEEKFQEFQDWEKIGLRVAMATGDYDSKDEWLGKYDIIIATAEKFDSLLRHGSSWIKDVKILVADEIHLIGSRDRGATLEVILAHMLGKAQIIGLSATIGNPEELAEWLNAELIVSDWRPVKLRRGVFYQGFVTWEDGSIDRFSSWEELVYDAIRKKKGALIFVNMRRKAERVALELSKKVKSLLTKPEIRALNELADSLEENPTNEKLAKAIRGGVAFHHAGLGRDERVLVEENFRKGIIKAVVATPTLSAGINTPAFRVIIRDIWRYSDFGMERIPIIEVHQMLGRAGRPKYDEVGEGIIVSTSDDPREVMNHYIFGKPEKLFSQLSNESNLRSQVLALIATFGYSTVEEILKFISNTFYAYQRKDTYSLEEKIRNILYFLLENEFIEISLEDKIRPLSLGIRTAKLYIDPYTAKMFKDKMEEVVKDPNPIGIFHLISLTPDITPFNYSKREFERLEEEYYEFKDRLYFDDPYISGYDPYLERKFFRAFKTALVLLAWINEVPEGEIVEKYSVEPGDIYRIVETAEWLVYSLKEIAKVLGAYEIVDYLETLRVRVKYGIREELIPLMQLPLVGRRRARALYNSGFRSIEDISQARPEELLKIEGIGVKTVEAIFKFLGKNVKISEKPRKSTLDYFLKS


Key:
PfuHjm = molecular target: T1, PfuHjm; test: X-ray crystal structure, soaked crystal; format: binding; conditions: Form 1 crystal soaked with 1 mM ATPgammaS, ADP modelled as hydrolysed product; 100 mM citrate pH 5.0, 1.6 M ammonium sulfate; 2.4 A; nucleotide site
[1] = molecular target: T2, PfuHjm (RecQ-like helicase Hjm, Hel308 …); test: negative-stain single-particle EM (23 A) of complex purified by gel filtration; no nucleotide added; 50 mM Tris-HCl pH 8.0, 0.15 M NaCl, 0.5 mM EDTA, 1 mM DTT, 10% glycerol, room temperature, 20 min, 1:1 protein/DNA; conditions: protein: recombinant; hairpin with 3' overhang

Molecule	X-ray crystal structure, soaked crystal (PfuHjm)	binding result [1]
Nc1ncnc2c1ncn2[C@@H]1O[C@H](COP(=O)(O)OP(=O)(O)O)[C@@H](O)[C@H]1O [ADP]	electron density corresponding to the hydrolyzed product ADP, rather than the soaked ATPγS	–
AGCACTGCTATTCCCTAGCAGTGCTAGATGCACGAC (structured_DNA) [3' overhang hairpin DNA]	–	binds
